The record followed here is patent EP1420018A1, “Pyrido[1,2-a]benzimidazole derivatives useful in treating central nervous system disorders” (Ortho-McNeil Pharmaceutical, Inc., priority 1996, dated 1998).

For test [1], the system named is metrazol-induced convulsions. Briefly: Suppression of Metrazol-Induced Convulsions in Adult Male Mice. In kind it is in vivo. To be noted: Mus musculus, ip. On the procedure:
Assay to Determine the Suppression of Metrazol-Induced Convulsions in Adult Male Mice
Male CD1 mice, were fasted at least 16 hours, were divided into equal groups and test compounds or vehicle were administered parenterally. Water was not withheld except during the period of observations. […] Metrazol was dissolved in 0.9% sodium chloride solution, and its dose volume was 10 ml/kg. Animals were housed individually for observation of clonic convulsions, tonic convulsions and death for a period of 30 min. […] The biological assay was considered to be valid if the effects of a known anticonvulsant (positive control) were detected, within the same experiment. Activity was reported as percent reduction of clonic convulsions from the vehicle group.

In test [2] the test system is Anxiety in the Adult Male Rat. Nature of the test: Suppression of Anxiety in the Adult Male Rat (rat conflict test). The test is classed as in vivo, rats. The settings on record: Rattus norvegicus. On the procedure: Assay to Measure the Suppression of Anxiety in the Adult Male Rat
Male rats were deprived of water for 48 hours and were deprived of food for 24 hours prior to testing. After the first 24 hours of water deprivation, they were placed in the conflict chamber for a training period; wherein, they were allowed 200 unpunished licks from a bottle containing tap water. The experiment was run the next day. At the expected time of peak activity, the animals were placed in the chamber and allowed access to tap water. […] Their first lick initiates a 3-min test session. Subsequently, every 20th lick was punished by a 0.2-s shock delivered via the stainless-steel drinking-tube.
The Wilcoxon rank-sum test (Mann-Whitney U-test) was used to test for an increase (p<0.05, 1-tailed) in the median number of shocks in drug-treated groups, compared to a concurrently run vehicle-treated group. The biological assay is considered to be valid if the effects of a known anxiolytic (positive control) are detected, within the same experiment.

The subject of test [3] is metrazol-induced convulsions. Briefly: Suppression of Metrazol-Induced Convulsions in Adult Male Mice. In kind it is in vivo. The settings on record: Mus musculus, po.
The target of test [4] is benzodiazepine site of the GABA-A receptor. Nature of the test: Benzodiazepine Receptor Binding Assay (inhibition of 3H-flunitrazepam binding). The settings on record: read-out: GABAA Receptor Binding IC50.
[5] abbreviates: block of clonic convulsions, male CD1 mice, >30 = active dose not determined.
Setting [6] is: po, minimum effective dose, increase in shocks tolerated, >10 = active dose not determined, read-out: Rat Conflict (MED, mg/kg) po.
[7] abbreviates: inhibition of 3H-flunitrazepam (ca. 3 nM) binding to membranes, 25°C, over 10,000 = not active.
Setting [8] is: ip, minimum effective dose, increase in shocks tolerated, >10 = active dose not determined, read-out: Rat Conflict (MED, mg/kg) ip.
[9] abbreviates: po, rat, po, read-out: Rat Conflict (MED, mg/kg) po.
Setting [10] is: ip, rat, ip, read-out: Rat Conflict (MED, mg/kg) ip.

Where a name gives a salt, the structure may show the parent alone. Read-outs that look alike come from different tables or passages of the source.

Regarding `CCN(C)CCN1C2=C(C(=O)Nc3ccccc3F)C(=O)CCN2c2ccc(F)cc21` [Compound 41], the ED50 was 3 mg/kg in test [1] (setting [5]) and about 10 mg/kg in test [3] (setting [5]). Further, the minimal effective dose in test [2] (setting [6]) worked out at 10 mg/kg. Further, the IC50 in test [4] (setting [7]) was 9.8 nM.

As to `O=C1CCN2C(=C1C(=O)Nc1ccccc1F)N(CCNC(=O)c1ccc(C(F)(F)F)cc1)c1cc(F)ccc12` [Compound 42], the ED50 was at least 30 mg/kg in test [1] (setting [5]) and over 30 mg/kg in test [3] (setting [5]). The minimal effective dose in test [2] (setting [8]) was at most 10 mg/kg; in test [2] (setting [6]), about 3 mg/kg. In addition, in test [4] (setting [7]), the IC50 came to 17 nM.

Take `CN(C)CCN1C2=C(C(=O)Nc3ccccc3F)C(=O)CCN2c2ccc(Cl)cc21` [Compound 43]: the ED50 is 1 to 10 mg/kg in test [1] (setting [5]) and under 30 mg/kg in test [3] (setting [5]). The minimal effective dose in test [2] (setting [8]) is 10 mg/kg; in test [2] (setting [6]) it was over 10 mg/kg. The IC50 in test [4] (setting [7]) is 26.9 nM.

`O=C1CCN2C(=C1C(=O)Nc1ccccc1F)N(CCNS(=O)(=O)c1ccccc1)c1cc(F)ccc12` [Compound 44]: the ED50 in test [1] (setting [5]) was at most 1 mg/kg; in test [3] (setting [5]) it was under 30 mg/kg. The minimal effective dose in test [2] (setting [8]) and in test [2] (setting [6]) was over 10 mg/kg in each case. Besides, in test [4] (setting [7]), the half-inhibitory concentration (IC50) was found to be 10.1 nM.

Regarding `CN(C)CCN1C2=C(C(=O)Nc3ccccc3F)C(=O)CCN2c2cccc(F)c21` [Compound 45], the values for the median effective dose (ED50) in test [1] (setting [5]) and in test [3] (setting [5]) were 1 mg/kg and 3 to 10 mg/kg, respectively. Also, the minimal effective dose is over 10 mg/kg in test [2] (setting [8]) and 10 mg/kg in test [2] (setting [6]). Further, the IC50 in test [4] (setting [7]) was found to be 40.6 nM.

With `O=C1CCN2C(=C1C(=O)Nc1ccccc1F)N(CCNC(=O)c1ccccc1)c1cc(F)ccc12` [Compound 46], the values for the ED50 in test [1] (mouse) and in test [3] (mouse) were 1 mg/kg and 30 mg/kg, respectively. Besides, in test [2] (setting [9]), the minimal effective dose was about 10 mg/kg. In addition, the IC50 in test [4] was 8.1 nM.

As for `O=C1CCN2C(=C1C(=O)Nc1ccccc1F)N(CCNS(=O)(=O)c1cccs1)c1cc(F)ccc12` [Compound 47], the ED50 was found to be 1 mg/kg in test [1] (mouse) and 30 mg/kg in test [3] (mouse). In addition, the minimal effective dose in test [2] (setting [10]) is over 10 mg/kg. In test [4], the IC50 came out at 13.7 nM.

On to `O=C1CCN2C(=C1C(=O)Nc1ccccc1F)N(CCNS(=O)(=O)C(F)(F)F)c1cc(F)ccc12` [Compound 48, 7-Fluoro-1,2-dihydro-5-[2-(trifluoromethylsulfonamido)ethyl]-3-oxo-N-(2-fluorophenyl)pyrido[1,2-a]benzimidazole-4-carboxamide], for which the ED50 is at most 1 mg/kg in test [1] (mouse) and under 30 mg/kg in test [3] (mouse). The minimal effective dose in test [2] (setting [9]) turned out to be 10 mg/kg. For the same molecule, the half-maximal inhibitory concentration (IC50) in test [4] is 30.2 nM.

Turning to `CN(C)CCN1C2=C(C(=O)Nc3cccs3)C(=O)CCN2c2ccc(F)cc21` [Compound 49], the median effective dose (ED50) in test [1] (mouse) was 3 mg/kg; in test [3] (mouse), about 5 mg/kg. Further, the minimal effective dose in test [2] (setting [10]) is over 10 mg/kg; in test [2] (setting [9]), about 10 mg/kg. Further, the half-inhibitory concentration (IC50) in test [4] came out at 152 nM.

For the molecule `CS(=O)(=O)NCCN1C2=C(C(=O)Nc3ccccc3F)C(=O)CCN2c2ccc(F)cc21` [Compound 50], the values for the median effective dose (ED50) in test [1] (mouse) and in test [3] (mouse) were 1 mg/kg and under 30 mg/kg, respectively. Also, the minimal effective dose in test [2] (setting [10]) was over 10 mg/kg. Also, the half-inhibitory concentration (IC50) in test [4] turned out to be 7.7 nM.

For the molecule `O=C1CCN2C(=C1C(=O)Nc1ccccc1F)N(CCNC(=O)C(F)(F)F)c1cc(F)ccc12` [Compound 51], the results for the ED50 in test [1] (mouse) and in test [3] (mouse) were 0.3 mg/kg and 1 mg/kg, respectively. Further, the minimal effective dose in test [2] (setting [10]) was about 10 mg/kg; in test [2] (setting [9]), over 10 mg/kg. The IC50 in test [4] was 0.51 nM.

On to `COCCNCCN1C2=C(C(=O)Nc3ccccc3F)C(=O)CCN2c2ccc(F)cc21` [Compound 52], for which the 50% effective dose (ED50) in test [1] (mouse) and in test [3] (mouse) was 1 mg/kg each time. Also, the minimal effective dose in test [2] (setting [10]) is about 10 mg/kg; in test [2] (setting [9]) it was 10 mg/kg. For the same molecule, in test [4], the IC50 amounted to 7.42 nM.

Consider `CC(=O)NCCN1C2=C(C(=O)Nc3ccccc3F)C(=O)CCN2c2ccc(F)cc21` [Compound 53], for which the ED50 in test [1] (mouse) came to 7 mg/kg; in test [3] (mouse), 30 mg/kg. Moreover, the minimal effective dose in test [2] (setting [10]) was over 10 mg/kg. The IC50 in test [4] came to 5.47 nM.

Take `CN(C)CCN1C2=C(C(=O)Nc3c(F)cc(F)cc3F)C(=O)CCN2c2ccc(F)cc21` [Compound 54]: the ED50 is 10 mg/kg in test [1] (mouse) and over 30 mg/kg in test [3] (mouse). In addition, the minimal effective dose in test [2] (setting [10]) was over 10 mg/kg. The IC50 in test [4] was determined as 208 nM.

On to `CN(C)CCN1C2=C(C(=O)Nc3ccc(F)cc3F)C(=O)CCN2c2ccc(F)cc21` [Compound 55], for which the ED50 in test [1] (mouse) and in test [3] (mouse) was 1 mg/kg throughout. In addition, the minimal effective dose is under 10 mg/kg in test [2] (setting [10]) and 3 mg/kg in test [2] (setting [9]). In addition, the IC50 in test [4] was 31.8 nM.

`COCCN(CCN1C2=C(C(=O)Nc3ccccc3F)C(=O)CCN2c2ccc(F)cc21)Cc1ccccc1` [Compound 56]: the median effective dose (ED50) is 1 mg/kg in test [1] (mouse) and about 10 mg/kg in test [3] (mouse). In addition, in test [2] (setting [10]), the minimal effective dose was over 10 mg/kg. In test [4], the concentration for half-maximal inhibition (IC50) came out at 7.99 nM.

For the molecule `NCCN1C2=C(C(=O)Nc3ccccc3F)C(=O)CCN2c2ccc(F)cc21` [Compound 57], the values for the ED50 in test [1] (mouse) and in test [3] (mouse) were 0.3 mg/kg and 10 mg/kg, respectively. Moreover, the minimal effective dose in test [2] (setting [10]) was about 10 mg/kg; in test [2] (setting [9]), 10 mg/kg. Moreover, the 50% inhibitory concentration (IC50) in test [4] was determined as 5.13 nM.

In the case of `CC(C)(C)OC(=O)NCCN1C2=C(C(=O)Nc3ccccc3F)C(=O)CCN2c2ccc(F)cc21` [Compound 58], the median effective dose (ED50) is under 1 mg/kg in test [1] (mouse) and under 30 mg/kg in test [3] (mouse). For the same molecule, the minimal effective dose in test [2] (setting [10]) was at most 10 mg/kg; in test [2] (setting [9]), over 10 mg/kg. Besides, in test [4], the IC50 amounted to 0.54 nM.

For the molecule `CNCCN1C2=C(C(=O)Nc3ccccc3F)C(=O)CCN2c2ccc(F)cc21` [Compound 59, 7-Fluoro-1,2-dihydro-5-[2-(methylamino)ethyl]-3-oxo-N-(2-fluorophenyl)pyrido[1,2-a]benzimidazole-4-carboxamide hydrochloride hydrate (4:4:5)], the ED50 in test [1] (mouse) worked out at 3 mg/kg; in test [3] (mouse) it was 10 mg/kg. Moreover, the minimal effective dose in test [2] (setting [10]) turned out to be 10 mg/kg; in test [2] (setting [9]), 1 mg/kg. Moreover, the IC50 in test [4] was determined as 16 nM.

In the case of `O=C(CN1C2=C(C(=O)Nc3ccccc3F)C(=O)CCN2c2ccc(F)cc21)Nc1ccccc1F` [Compound 61, 7-Fluoro-1,2-dihydro-5-[N-(2-fluorophenyl)-2-acetamido]-3-oxo-N-(2-fluorophenyl)pyrido[1,2-a]benzimidazole-4-carboxamide], the results for the ED50 in test [1] (mouse) and in test [3] (mouse) were under 1 mg/kg and 30 mg/kg, respectively. Besides, the minimal effective dose in test [2] (setting [10]) was over 10 mg/kg. Moreover, in test [4], the IC50 amounted to 6.32 nM.

Take `CN(CCN1C2=C(C(=O)Nc3ccccc3F)C(=O)CCN2c2ccc(F)cc21)Cc1ccc(F)cc1` [Compound 62]: the ED50 in test [1] (mouse) is 3 mg/kg; in test [3] (mouse) it was 30 mg/kg. In addition, the minimal effective dose in test [2] (setting [10]) was under 10 mg/kg; in test [2] (setting [9]), over 10 mg/kg. In addition, the IC50 in test [4] is 7.69 nM.

As to `O=C1CCN2C(=C1C(=O)Nc1ccccc1F)N(CCN(Cc1ccccc1)Cc1ccccc1)c1cc(F)ccc12` [Compound 64], the figures for the ED50 in test [1] (mouse) and in test [3] (mouse) were 3 mg/kg and over 30 mg/kg, respectively. The minimal effective dose in test [2] (setting [10]) was over 10 mg/kg. Further, the 50% inhibitory concentration (IC50) in test [4] came out at 3.02 nM.

Turning to `CN(CCN1C2=C(C(=O)Nc3c(F)cccc3F)C(=O)CCN2c2ccc(F)cc21)Cc1ccc(F)cc1` [Compound 65], the ED50 was over 10 mg/kg in test [1] (mouse) and over 30 mg/kg in test [3] (mouse). Besides, the minimal effective dose in test [2] (setting [10]) is over 10 mg/kg. Moreover, the IC50 in test [4] was found to be 11 nM.
